pIC50: −log10 of the molar value.
Biological target: T1, hERG K+ channel (Homo sapiens, UniProt Q12809)
T1 construct: expressed in transfected cells; host or cells: CHO (Chinese hamster ovary)
Test: hERG channel inhibition assay (patch-clamp, CHO-hERG cells)
Type: cell-based
Conditions: for pIC50 / IC20: CHO-hERG cells, whole-cell patch-clamp; for IC20: human, CHO cells stably expressing hERG; for hERG IC20/TLR7 IC50 / hERG IC20/TLR8 IC50 / hERG IC20/TLR9 IC50: safety ratio
Procedure: The hERG K^+ channels were cloned in humans and stably expressed in a CHO (Chinese hamster ovary) cell line. CHOhERG cells were used for patch-clamp (voltage-clamp, whole-cell) experiments. Cells were stimulated by a voltage pattern to activate hERG channels and conduct IKhERG Currents (rapid delayed outward rectifier potassium current of the hERG channel). After the cells were stabilized for a few minutes, the amplitude and kinetics of IKhERG were recorded at a stimulation frequency of 0.1 Hz (6 bpm). Thereafter, the test compound was added to the preparation at increasing concentrations. For each concentration, an attempt was made to reach a steady-state effect, usually, this was achieved within 3-10 min at which time the next highest concentration was applied. The amplitude and kinetics of IKhERG are recorded in each concentration of the drug which were compared to the control values (taken as 100%). (references: Redfe W S, Carlsson L, Davis A S, Lynch W G, MacKenzie I, Palethorpe S, Siegl P K, Strang I, Sullivan A T, Wallis R, Camm A J, Hammond T G. 2003; Relationships between preclinical cardiac electrophysiology, clinical QT interval prolongation and torsade de pointes for a broad range of drugs: evidence for a provisional safety margin in drug development. Cardiovasc. Res. 58:32-45, Sanguinetti M C, Tristani-Firouzi M. 2006; hERG potassium channels and cardiac arrhythmia. Nature 440:463-469, Webster R, Leishman D, Walker D. 2002; Towards a drug concentration effect relationship for QT prolongation and torsades de pointes. Curr. Opin. Drug Discov. Devel. 5:116-26).

T1 sequence (Q12809 whole entry): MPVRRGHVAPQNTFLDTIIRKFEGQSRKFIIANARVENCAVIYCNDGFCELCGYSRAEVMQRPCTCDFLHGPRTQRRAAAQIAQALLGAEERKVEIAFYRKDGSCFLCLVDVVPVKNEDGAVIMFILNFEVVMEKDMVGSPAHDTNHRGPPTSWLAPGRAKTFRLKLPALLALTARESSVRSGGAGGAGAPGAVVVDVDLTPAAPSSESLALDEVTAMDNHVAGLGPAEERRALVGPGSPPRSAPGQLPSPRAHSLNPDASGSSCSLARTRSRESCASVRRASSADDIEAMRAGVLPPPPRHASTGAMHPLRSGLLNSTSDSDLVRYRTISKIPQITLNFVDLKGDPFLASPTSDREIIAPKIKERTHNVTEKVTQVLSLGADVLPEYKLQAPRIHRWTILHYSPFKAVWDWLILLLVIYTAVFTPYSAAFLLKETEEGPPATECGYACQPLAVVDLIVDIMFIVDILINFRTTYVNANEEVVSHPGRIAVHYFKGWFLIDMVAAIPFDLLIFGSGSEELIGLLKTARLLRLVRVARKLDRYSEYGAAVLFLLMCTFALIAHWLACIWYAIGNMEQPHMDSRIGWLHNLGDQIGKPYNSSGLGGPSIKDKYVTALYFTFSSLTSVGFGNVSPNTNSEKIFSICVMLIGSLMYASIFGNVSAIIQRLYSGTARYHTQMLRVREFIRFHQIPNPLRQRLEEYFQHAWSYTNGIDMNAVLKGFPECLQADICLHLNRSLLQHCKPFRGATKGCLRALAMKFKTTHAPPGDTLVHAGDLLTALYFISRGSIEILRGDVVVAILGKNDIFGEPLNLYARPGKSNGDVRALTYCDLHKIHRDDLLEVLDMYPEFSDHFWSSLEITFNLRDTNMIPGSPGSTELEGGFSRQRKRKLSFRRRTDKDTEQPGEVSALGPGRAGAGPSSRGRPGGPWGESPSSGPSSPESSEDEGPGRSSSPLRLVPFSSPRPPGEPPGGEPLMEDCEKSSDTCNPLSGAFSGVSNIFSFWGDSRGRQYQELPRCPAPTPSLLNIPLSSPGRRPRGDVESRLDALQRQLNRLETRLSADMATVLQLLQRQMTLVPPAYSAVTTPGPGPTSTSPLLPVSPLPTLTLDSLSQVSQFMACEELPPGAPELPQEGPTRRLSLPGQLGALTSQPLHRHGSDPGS

SMILES | pIC50 | IC20 [µM] | hERG IC20/TLR7 IC50 | hERG IC20/TLR8 IC50 | hERG IC20/TLR9 IC50
Cc1cc(N2CCC(c3ncc(N4CCNCC4)cc3C)[C@H](C)C2)c2cnn(C)c2n1 (single isomer, unassigned) [Example 25, 1,6-dimethyl-4-[trans-3-methyl-4-(3-methyl-5-piperazin-1-yl-2-pyridyl)-1-piperidyl]pyrazolo[3,4-b]pyridine] | < 4.70 | > 10 | >1111.1 | >1428.6 | >102.0
Cc1cc(N2CCC(c3ccc(N4CCNCC4)cc3)CC2)c2cnn(C)c2n1 [Example 1, 1,6-dimethyl-4-[4-(4-piperazin-1-ylphenyl)-1-piperidyl]pyrazolo[3,4-b]pyridine] | < 5.00 | 4 | 75.5 | 333.3 | 14.5
Cc1cc(N2CCC(c3ccc(N4CCNCC4)cn3)CC2)c2cnn(C)c2n1 [Example 2, 1,6-dimethyl-4-[4-(5-piperazin-1-yl-2-pyridyl)-1-piperidyl]pyrazolo[3,4-b]pyridine] | < 4.70 | > 10 | >370.4 | >476.2 | >70.4
Cc1cc(N2CCNCC2)ncc1C1CCN(c2ccnc3c2cnn3C)CC1 [Example 6, 1-methyl-4-[4-(4-methyl-6-piperazin-1-yl-3-pyridyl)-1-piperidyl]pyrazolo[3,4-b]pyridine] | < 5.00 | 4.4 | 628.6 | 118.9 | 21.2
Cc1cc(N2CCC(c3cnc(N4CCNCC4)nc3C)CC2)c2cnn(C)c2n1 [Example 11, 1,6-dimethyl-4-[4-(4-methyl-2-piperazin-1-yl-pyrimidin-5-yl)-1-piperidyl]pyrazolo[3,4-b]pyridine] | < 4.70 | 7.5 | 202.7 | 178.6 | 72.1
COC[C@H]1CN(c2cnc([C@@H]3CCN(c4cc(C)nc5c4cnn5C)C[C@H]3C)c(C)c2)CCN1 [Example 29, 4-[(3S,4R)-4-[5-[(3R)-3-(methoxymethyl)piperazin-1-yl]-3-methyl-2-pyridyl]-3-methyl-1-piperidyl]-1,6-dimethyl-pyrazolo[3,4-b]pyridine] | < 5.00 | 4.4 | 880.0 | 550.0 | 18.5
Cc1cc(N2CC[C@@H](c3ncc(N4CC(C)(N)C4)cc3C)[C@H](C)C2)c2cnn(C)c2n1 [Example 32, 1-[6-[(3S,4R)-1-(1,6-dimethylpyrazolo[3,4-b]pyridin-4-yl)-3-methyl-4-piperidyl]-5-methyl-3-pyridyl]-3-methyl-azetidin-3-amine] | < 5.00 | 4.4 | 550.0 | 293.3 | 23.7
Cc1cc(N2CC[C@@H](c3ncc(N4C[C@H]5NCCO[C@@H]5C4)cc3C)[C@H](C)C2)c2cnn(C)c2n1 [Example 33, (4aR,7aR)-6-[6-[(3S,4R)-1-(1,6-dimethylpyrazolo[3,4-b]pyridin-4-yl)-3-methyl-4-piperidyl]-5-methyl-3-pyridyl]-3,4,4a,5,7,7a-hexahydro-2H-pyrrolo[3,4-b][1,4]oxazine] | < 5.00 | 4.1 | 372.7 | 1366.7 | 51.9
Cc1cc(N2CC[C@H](c3ccc(N4CCNCC4)cn3)[C@@H](C)C2)c2cnn(C)c2n1 [Example 35, 1,6-dimethyl-4-[(3R,4S)-3-methyl-4-(5-piperazin-1-yl-2-pyridyl)-1-piperidyl]pyrazolo[3,4-b]pyridine] | < 5.00 | 4.4 | 733.3 | 488.9 | 27.8

From patent US20240360126A1, “PYRAZOLO[3,4-B]PYRIDINE COMPOUNDS FOR THE TREATMENT OF AUTOIMMUNE DISEASE” (Hoffmann-La Roche Inc., priority 2021, published 2024)
